Reference: patent EP4700022A1, “CYP11A1 INHIBITORS AND USE THEREOF” (Xizang Haisco Pharmaceutical Co., Ltd., priority 2023, dated 2024)

How the values were obtained:
[1] = tested on: testosterone level in NCI-H295R cells; assay: cells; format: cell-based; details: Homo sapiens, 72 h; for IC50: read-out: IC50/nM; for inhibition at 0.1 µM: read-out: Testosterone level in H295R (Elisa) inh.% 100 nM; for inhibition at 1 µM: read-out: Testosterone level in H295R (Elisa) inh.% 1000 nM
Procedure: 1. The purpose of the experimental study was intended to detect the testosterone level in the NCI-H295R cells by adopting the Enzyme linked immunosorbent assay (ELISA), so as to evaluate the inhibitory effects of the compounds on the testosterone level in the NCI-H295R cells. The H295R cells were purchased from ATCC, the cell complete medium contained DMEM: F12+ 10% FBS +0.00625 mg/ml insulin +0.00625 mg/ml transferrin+6.25 ng/ml selenium +1.25 mg/ml BSA+0.00535 mg/ml linoleic acid, and the cells were cultured in a 37°C, 5% CO2 incubator. The cells in the exponential growth phase were collected, and cultured in a cytokine-free medium (phenol red 1640-free +1% PS+10% css FBS+1.25 mg/ml BSA +0.00625 mg/ml insulin + 0.00625 mg/ml transferrin+6.25 ng/ml selenium+0.00535 mg/ml linoleic acid) for 3 days. The cells in the exponential growth phase were collected on the third day. The cell suspension was adjusted with a cytokine-free medium to a corresponding concentration and plated at 60000 cells/well, with the volume being 90 µL/well. Subsequently, 10 µL of the compounds at different concentrations was added and the plate was incubated in a CO2 incubator for 3 days. After the incubation was completed, according to the operation instructions for testosterone Elisa kit (Beyotime, PT872), 50 µL of the cell culture supernatant was collected from each well and centrifuged at 500 g for 5 min at room temperature and then the resulting supernatant was collected. The samples were added to the corresponding wells at 25 µl/well, and then formulated horseradish peroxidase labeled testosterone was added at 75 µl/well. The mixture was fully mixed for 10 seconds. The reaction wells were sealed with a plate-sealing film (white) and the mixture was incubated at room temperature in the dark for 120 min. The plate was washed 3 times with a volume of 300 µl per well, and then placed onto thick absorbent paper and dried. Chromogenic reagent TMB solution was added at 100 µl/well. The reaction wells were sealed with a plate-sealing film (white) and the mixture was incubated at room temperature in the dark for 15-20 min. Subsequently, a termination solution was added at 50 µl/well, and after the mixture was fully mixed, the absorbance value OD450 was immediately measured. The absorbance readings were processed using Graphpad Prim 8.0 software and S-shaped concentration curves were plotted and the IC50 values were calculated using a four-parameter non-linear regression model. The results were processed according to formula (1), the inhibition rate of the compound at different concentrations was calculated, and the IC50 value of the compound with an inhibition rate of 50% was calculated using Graphpad Prim 8.0 software, wherein RLU compound was the readout of the treated group, and RLU control was the average value of the solvent control group. Inhibition rate% = 100-RLUcompound /RLUcontrol × 100 [formula] Table 1. Inhibitory activity on testosterone level in NCI-H295R cells

[2] = Pharmacokinetic test in beagle dogs; format: in vivo; details: dog, male beagle dogs, plasma
Procedure: Experimental animals: male beagle dogs, about 8-11 kg, 6 beagle dogs/compound, purchased from Beijing Marshall Biotechnology Co., Ltd.
Experimental method: on the day of the experiment, the beagle dogs were randomly grouped according to their body weights. The animals were fasted with water available for 12-14 h one day before the administration, and were fed 4 h after the administration. Administration was performed as per Table 7.
Test compounds: example compounds and control compounds. Table 7. Administration information
Before and after the administration, 1 ml of blood was taken from the jugular veins or limb veins, and placed in an EDTAK2 centrifuge tube. Centrifugation was performed at 5000 rpm at 4°C for 10 min, and plasma was collected. The blood collection time points for both the intravenous administration group and the intragastric administration group were: 0, 5 min, 15 min, 30 min, 1 h, 2 h, 4 h, 6 h, 8 h, 10 h, 12 h, 24 h, 48 h, and 72 h. Before analysis and detection, all samples were stored at -80°C. The samples were analyzed quantitatively by LC-MS/MS. Table 8. Pharmacokinetic parameters of test compounds in plasma of beagle dogs

[3] = tested on: pregnenolone level in NCI-H295R cells; assay: cells; format: cell-based; details: Homo sapiens, 72 h; for IC50: read-out: Pregnenolone level in H295R (Elisa) IC50 nM
Procedure: 2. The purpose of the experimental study was intended to detect the pregnenolone level in the NCI-H295R cells by adopting the Enzyme linked immunosorbent assay (ELISA), so as to evaluate the inhibitory effects of the compounds on the pregnenolone level in the NCI-H295R cells.
The H295R cells were purchased from ATCC (CRL-2128), the cell complete medium contained DMEM: F12+ 10% FBS +0.00625 mg/ml insulin+0.00625 mg/mL transferrin+6.25 ng/mL selenium+1.25 mg/mL BSA+0.00535 mg/mL linoleic acid, and the cells were cultured in a 37°C, 5% CO2 incubator. The cells in the exponential growth phase were collected, and cultured in a cytokine-free medium (phenol red 1640-free +1% PS+10% css FBS+1.25 mg/mL BSA +0.00625 mg/mL insulin+0.00625 mg/mL transferrin+6.25 ng/mL selenium+0.00535 mg/mL linoleic acid) for 3 days. The cells in the exponential growth phase were collected on the third day. The cell suspension was adjusted with a cytokine-free medium to a corresponding concentration and plated at 60000 cells/well, with the volume being 90 µL/well. Subsequently, 10 µL of the compounds at different concentrations was added and the plate was incubated in a CO2 incubator for 3 days. After the incubation was completed, the cell culture supernatant was collected and centrifuged at 2°C-8°C at 800×g for 10 min. The resulting supernatant was collected. Determination was carried out according to the operation instructions for pregnenolone Elisa kit (Antibodies-A73791), and the OD450 signal was read.
2.1 Standard curve plotting. The standard concentration was taken as the abscissa and the OD450 value as the ordinate, the coordinate points of various standards were connected with a smooth line and a curve was fitted according to the four parameter logistic (4-PL) method.
2.2 Sample quantification: The corresponding concentration (CONC) of testosterone/pregnenolone in the sample was calculated using the absorbance value of the sample and the standard curve. According to formula (2), the inhibition rate of the compound at various concentrations was calculated, and S-shaped concentration curves were plotted and the IC50 values (i.e., concentration of the compound at which the inhibition rate was 50%) were calculated using a three parameter non-linear regression model in Graphpad Prim 8.0 software. CONC cpd was the concentration of the treated group, and CONC ctrl was the average concentration value of the solvent control group. Inhibition rate% = 100%-CONCepd /CONCctrl × 100% [formula]

[4] = Pharmacokinetic test in mice; format: in vivo; details: mouse, male ICR mice, plasma; for Vd: read-out: Vdss
Procedure: 4.1. Experimental animals: Male ICR mice, 20-25 g, 6 mice/compound, purchased from Chengdu Dossy Experimental Animals Co., Ltd.
4.2 Experimental design: on the day of the experiment, the ICR mice were randomly grouped according to their body weights. […] Table 5. Administration information
vehicle for intravenous administration: 5% DMA+5% HS-15+90% NS; vehicle for intragastric administration: 0.5% MC
Before and after administration, 0.06 mL of blood was taken from the orbit under isoflurane anesthesia and placed in an EDTAK2 centrifuge tube. The tube was centrifuged at 5000 rpm at 4°C for 10 min, and plasma was collected. […] Before analysis and detection, all samples were stored at -80°C, and the samples were quantitatively analyzed by LC-MS/MS. Table 6. Pharmacokinetic parameters of test compounds in plasma of mice

[5] = Pharmacokinetic test in rats; format: in vivo; details: rat, male SD rats, plasma; for Vd: read-out: Vdss
Procedure: 3.1 Experimental animals: Male SD rats (about 220 g, 6-8 weeks old, 6 rats/compound), purchased from Chengdu Dossy Experimental Animals Co., Ltd.
3.2 Experimental design: On the day of the experiment, the SD rats were randomly grouped by body weight. […] Table 3. Administration information
Before and after the administration, 0.1 ml of blood was taken from the orbit of the animals under isoflurane anesthesia and placed in an EDTAK2 centrifuge tube. The blood was centrifuged at 5000 rpm and 4°C for 10 min to collect plasma. […] Before analysis and detection, all samples were stored at -80°C. Table 4. Pharmacokinetic parameters of test compounds in plasma of rats

[6] = po, intragastric administration (3 mg/kg)
[7] = intravenous administration (1 mg/kg)
[8] = po, intragastric administration (10 mg/kg)
[9] = intravenous administration (2.5 mg/kg)

| Compound | IC50 [1] [nM] | IC50 [3] [nM] | AUC(0-t) [4, 8] [µg·h/mL] | half-life [4, 8] [h] | AUC(0-t) [4, 9] [µg·h/mL] | clearance [4, 9] [L/h/kg] | half-life [4, 9] [h] | Vd [4, 9] [L/kg] | inhibition at 0.1 µM [1] [%] | inhibition at 1 µM [1] [%] | AUC(0-t) [5, 8] [µg·h/mL] | half-life [5, 8] [h] | AUC(0-t) [5, 9] [µg·h/mL] | clearance [5, 9] [L/h/kg] | half-life [5, 9] [h] | Vd [5, 9] [L/kg] | further results |
| --- | --- | --- | --- | --- | --- | --- | --- | --- | --- | --- | --- | --- | --- | --- | --- | --- | --- |
| [2H]C([2H])([2H])C(=O)N[C@H]1CC[C@H](c2cc3oc(CN4Cc5ccc(C(F)(F)F)cc5C4)cc(=O)c3o2)CC1 [Compound 58] | 57 | 160 | 9.46 | 2.08 | 2.96 | 0.852 | 2.77 | 1.34 | – | – | – | – | – | – | – | – | AUC(0-t) [2, 6]: 24.8 µg·h/mL; half-life [2, 6]: 6.79 h; AUC(0-t) [2, 7]: 14 µg·h/mL; clearance [2, 7]: 0.0744 L/h/kg; half-life [2, 7]: 10.2 h; Vd ([2]; intravenous administration (1 mg/kg), read-out: Vdss): 0.87 L/kg |
| O=C(N[C@H]1CC[C@H](CCOc2cc(CN3Cc4ccc(C(F)(F)F)cc4C3)ccn2)CC1)C1CC1 [Compound 65] | 168 | 319 | – | – | – | – | – | – | 71 | 75 | 7.55 | 6.58 | 2.15 | 1.04 | 8.25 | 8.8 | – |
| [2H]C([2H])([2H])n1cc(C(=O)N[C@H]2CC[C@H](CCOc3cc(CN4Cc5ccc(C(F)(F)F)cc5C4)ccn3)CC2)cn1 [Compound 63] | 92 | 272 | 20.8 | 6.62 | 5.53 | 0.442 | 4.7 | 2.36 | 64.4 | 76.4 | – | – | – | – | – | – | – |
| O=C(N[C@H]1CC[C@H](CCOc2cc(CN3Cc4ccc(C(F)(F)F)cc4C3)ccn2)CC1)[C@@H]1CC1(F)F [Compound 71] | – | – | – | – | – | – | – | – | 74.9 | 86.9 | – | – | – | – | – | – | inhibition at 0.1 µM ([3]; read-out: Pregnenolone level in H295R (Elisa) inh.% 100 nM): 43.9%; inhibition at 1 µM ([3]; read-out: Pregnenolone level in H295R (Elisa) inh.% 1000 nM): 57.5% |
| [2H]C([2H])([2H])C(=O)N[C@H]1CC[C@H](CCOc2cc(CN3Cc4ccc(C(F)(F)F)cc4C3)ccn2)CC1 [Compound 62] | 151 | 142 | – | – | – | – | – | – | – | – | 41.5 | 4.13 | 10.8 | 0.238 | 3.81 | 1.11 | – |
